Like-named read-outs stand apart in the source and are kept apart here. Non-standard residues stand in square brackets, D forms with d. Residues, ends and D or L forms follow the SMILES beside them. No end group written: not given here.
Legend:
[1] = system: Pectobacterium carotovorum sub. carotovorum
Procedure: (§1) In-vitro inhibition assays were performed in sterile flat-bottom 96-well plates (Greiner bio-one, Frickenhausen). Antimicrobial peptides were dissolved in 0.01% acetic acid containing 0.2% BSA (500 µg/ml), filter sterilized and stored at -20°C. For inhibition assays dilutions of peptides ranging from 5 to 200 µg/ml were prepared and 10 µl (antibacterial assay) or 20 µl (antifungal assay) of each concentration was loaded per well.
(§2) Bacteria colonies from overnight agar plate cultures were resuspended into 5ml LB-medium or HPG-medium (OD600nm=0.08-0.1) and diluted into LB-medium/HPG-medium (1:100). 90 µl of this suspension containing about 10^5-10^6 CFU/ml of tested bacteria were added to each well resulting in final peptide concentrations of 0, 0.5, 1, 2, 5, 10, and 20 µg/ml.
(§3) The lowest peptide concentration leading to complete inhibition of bacterial growth or spore germination/mycelial growth (minimal inhibition concentration, MIC) was determined for each organism-peptide combination. For each peptide concentration two identical inhibition assays were performed. […] Table 1: Minimal inhibition concentration (MIC) for complete inhibition of bacterial growth or spore germination/mycelial growth.

Pseudomonas corrugata = system: Pseudomonas corrugata
Procedure: as §1, §2, §3

[2] = system: Pseudomonas syringae pv. syringae
Procedure: as §1, §2, §3

[3] = system: Pseudomonas syringae pv. tomato
Procedure: as §1, §2, §3

Xanthomonas vesicatoria = system: Xanthomonas vesicatoria
Procedure: as §1, §2, §3

Alternaria alternata = type: cell-based; conditions: complete inhibition of spore germination/mycelial growth, OD590nm
Procedure: (§4) In-vitro inhibition assays were performed in sterile flat-bottom 96-well plates (Greiner bio-one, Frickenhausen). […] Spores of fungi were collected by water washes of sporulating cultures grown on 2% malt extract agar and spore concentration was determined by microscopy. The concentration of the spores was adjusted to 1.5-2 x 10^3 spores/ml in 2% malt extract medium and 80 µl of fungal spores were added per well. […] After overnight incubation at room temperature the plate were put on a rotary shaker (300 rpm) for further two days to ensure consistantly growth. Antifungal effects of the peptides were determined by a microplate reader (Alternaria, Fusarium) at OD590nm or by visual screening of the plates (Botrytis, Cladosporium). The lowest peptide concentration leading to complete inhibition of bacterial growth or spore germination/mycelial growth (minimal inhibition concentration, MIC) was determined for each organism-peptide combination. For each peptide concentration two identical inhibition assays were performed. Table 1: Minimal inhibition concentration (MIC) for complete inhibition of bacterial growth or spore germination/mycelial growth.

Botrytis cinerea = type: cell-based; conditions: complete inhibition of spore germination/mycelial growth, visual screening
Procedure: as §4

Cladosporium herbarum = type: cell-based; conditions: complete inhibition of spore germination/mycelial growth, visual screening
Procedure: as §4

[4] = system: Clavibacter michiganensis sub. michiganensis; conditions: complete inhibition of bacterial growth, overnight at 25 °C
Procedure: as §1, §2, §3

[5] = complete inhibition of bacterial growth, Pectobacterium carotovorum sub. carotovorum, overnight at 25 °C
[6] = complete inhibition of bacterial growth, Pseudomonas corrugata, overnight at 25 °C
[7] = complete inhibition of bacterial growth, Pseudomonas syringae pv. syringae, overnight at 25 °C
[8] = complete inhibition of bacterial growth, Pseudomonas syringae pv. tomato, overnight at 25 °C
[9] = complete inhibition of bacterial growth, Xanthomonas vesicatoria, overnight at 25 °C

CC[C@@H](C)[C@@H](NC(=O)[C@H](Cc1ccccc1)NC(=O)[C@H](CCCNC(=N)N)NC(=O)[C@H](CCCCN)NC(=O)[C@H](CC(C)C)NC(=O)[C@H](Cc1ccccc1)NC(=O)[C@H](CCCCN)NC(=O)[C@H](NC(=O)[C@H](CC(C)C)NC(=O)[C@@H](N)CC(C)C)[C@H](C)CC)C(=O)N[C@@H](CCCCN)C(=O)N[C@@H](Cc1c[nH]cn1)C(N)=O [SP7-D, LL/KFLKRF/KH] (H-LL[dI]KFLKRF[dI]KH-NH2; N-terminus assumed)
Minimal inhibition concentration (MIC) [1]: 40 µg/mL
Minimal inhibition concentration (MIC) (Pseudomonas corrugata): 5 µg/mL
Minimal inhibition concentration (MIC) [2]: 2,5 µg/ml
Minimal inhibition concentration (MIC) [3]: 2,5 µg/ml
Minimal inhibition concentration (MIC) (Xanthomonas vesicatoria): 10 µg/mL

ALAHFLKKAIKK-NH2 [SP6]
Minimal inhibition concentration (MIC) (Alternaria alternata): > 100 µg/mL
Minimal inhibition concentration (MIC) (Botrytis cinerea): > 100 µg/mL
Minimal inhibition concentration (MIC) (Cladosporium herbarum): 100 µg/mL
Minimal inhibition concentration (MIC) [4]: > 40 µg/mL
Minimal inhibition concentration (MIC) [1, 5]: > 40 µg/mL
Minimal inhibition concentration (MIC) (Pseudomonas corrugata; [6]): 20 µg/mL
Minimal inhibition concentration (MIC) [2, 7]: 5 µg/mL
Minimal inhibition concentration (MIC) [3, 8]: 10 µg/mL
Minimal inhibition concentration (MIC) (Xanthomonas vesicatoria; [9]): 40 µg/mL

LLIAAFKKLVKK-NH2 [SP5]
Minimal inhibition concentration (MIC) (Alternaria alternata): > 100 µg/mL
Minimal inhibition concentration (MIC) (Botrytis cinerea): > 100 µg/mL
Minimal inhibition concentration (MIC) (Cladosporium herbarum): 100 µg/mL
Minimal inhibition concentration (MIC) [4]: 20 µg/mL
Minimal inhibition concentration (MIC) [1, 5]: > 40 µg/mL
Minimal inhibition concentration (MIC) (Pseudomonas corrugata; [6]): > 40 µg/mL
Minimal inhibition concentration (MIC) [2, 7]: 40 µg/mL
Minimal inhibition concentration (MIC) [3, 8]: > 40 µg/mL
Minimal inhibition concentration (MIC) (Xanthomonas vesicatoria; [9]): 40 µg/mL

LLIKFLKRFIKH-NH2 [SP7]
Minimal inhibition concentration (MIC) (Alternaria alternata): > 100 µg/mL
Minimal inhibition concentration (MIC) (Botrytis cinerea): > 100 µg/mL
Minimal inhibition concentration (MIC) (Cladosporium herbarum): 20 µg/mL
Minimal inhibition concentration (MIC) [4]: 5 µg/mL
Minimal inhibition concentration (MIC) [1, 5]: > 40 µg/mL
Minimal inhibition concentration (MIC) (Pseudomonas corrugata; [6]): 10 µg/mL
Minimal inhibition concentration (MIC) [2, 7]: 10 µg/mL
Minimal inhibition concentration (MIC) [3, 8]: 5 µg/mL
Minimal inhibition concentration (MIC) (Xanthomonas vesicatoria; [9]): 5 µg/mL

LLIRAAKKFIKK-NH2 [SP8]
Minimal inhibition concentration (MIC) (Alternaria alternata): > 100 µg/mL
Minimal inhibition concentration (MIC) (Botrytis cinerea): > 100 µg/mL
Minimal inhibition concentration (MIC) (Cladosporium herbarum): 40 µg/mL
Minimal inhibition concentration (MIC) [4]: > 40 µg/mL
Minimal inhibition concentration (MIC) [1, 5]: > 40 µg/mL
Minimal inhibition concentration (MIC) (Pseudomonas corrugata; [6]): > 40 µg/mL
Minimal inhibition concentration (MIC) [2, 7]: > 40 µg/mL
Minimal inhibition concentration (MIC) [3, 8]: > 40 µg/mL
Minimal inhibition concentration (MIC) (Xanthomonas vesicatoria; [9]): > 40 µg/mL
